Laboratory results published in ChEMBL document CHEMBL3351303, “Discovery of Imigliptin, a Novel Selective DPP-4 Inhibitor for the Treatment of Type 2 Diabetes” (ACS Med Chem Lett, 2014).

Tests used:
Dipeptidyl peptidase 8 = Dipeptidyl peptidase 8 (Homo sapiens, UniProt Q6V1X1); assay: Inhibition of human recombinant DPP8 pre-incubated with compound for 15 mins before substrate addition by luminescence assay
Dipeptidyl peptidase 9 = Dipeptidyl peptidase 9 (Homo sapiens, UniProt Q86TI2); assay: Inhibition of human recombinant DPP9 pre-incubated with compound for 15 mins before substrate addition by luminescence assay
Dipeptidyl peptidase 9, sequence (Q86TI2 whole entry): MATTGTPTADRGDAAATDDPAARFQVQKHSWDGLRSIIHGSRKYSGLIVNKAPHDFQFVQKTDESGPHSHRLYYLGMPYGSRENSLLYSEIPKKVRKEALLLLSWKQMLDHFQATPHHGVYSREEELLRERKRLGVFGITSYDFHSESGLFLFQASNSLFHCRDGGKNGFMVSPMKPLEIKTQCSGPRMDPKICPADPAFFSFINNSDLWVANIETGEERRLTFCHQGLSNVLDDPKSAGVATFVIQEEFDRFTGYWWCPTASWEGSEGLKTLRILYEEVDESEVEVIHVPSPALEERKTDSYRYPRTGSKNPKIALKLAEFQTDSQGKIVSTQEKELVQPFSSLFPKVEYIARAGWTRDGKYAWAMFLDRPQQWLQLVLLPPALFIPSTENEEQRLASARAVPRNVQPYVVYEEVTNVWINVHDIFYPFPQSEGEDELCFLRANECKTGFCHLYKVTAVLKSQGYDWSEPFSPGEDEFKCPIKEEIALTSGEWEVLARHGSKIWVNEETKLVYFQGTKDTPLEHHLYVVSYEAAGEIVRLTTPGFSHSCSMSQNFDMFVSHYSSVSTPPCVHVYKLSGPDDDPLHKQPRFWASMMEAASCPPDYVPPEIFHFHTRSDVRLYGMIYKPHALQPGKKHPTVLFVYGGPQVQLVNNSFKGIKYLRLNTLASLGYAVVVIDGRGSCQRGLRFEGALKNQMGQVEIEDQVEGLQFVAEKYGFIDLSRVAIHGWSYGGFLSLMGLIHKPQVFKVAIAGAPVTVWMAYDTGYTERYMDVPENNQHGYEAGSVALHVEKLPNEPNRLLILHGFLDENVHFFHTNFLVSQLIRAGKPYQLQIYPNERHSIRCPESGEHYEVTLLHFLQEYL

Dipeptidyl peptidase 8, sequence (Q6V1X1 whole entry): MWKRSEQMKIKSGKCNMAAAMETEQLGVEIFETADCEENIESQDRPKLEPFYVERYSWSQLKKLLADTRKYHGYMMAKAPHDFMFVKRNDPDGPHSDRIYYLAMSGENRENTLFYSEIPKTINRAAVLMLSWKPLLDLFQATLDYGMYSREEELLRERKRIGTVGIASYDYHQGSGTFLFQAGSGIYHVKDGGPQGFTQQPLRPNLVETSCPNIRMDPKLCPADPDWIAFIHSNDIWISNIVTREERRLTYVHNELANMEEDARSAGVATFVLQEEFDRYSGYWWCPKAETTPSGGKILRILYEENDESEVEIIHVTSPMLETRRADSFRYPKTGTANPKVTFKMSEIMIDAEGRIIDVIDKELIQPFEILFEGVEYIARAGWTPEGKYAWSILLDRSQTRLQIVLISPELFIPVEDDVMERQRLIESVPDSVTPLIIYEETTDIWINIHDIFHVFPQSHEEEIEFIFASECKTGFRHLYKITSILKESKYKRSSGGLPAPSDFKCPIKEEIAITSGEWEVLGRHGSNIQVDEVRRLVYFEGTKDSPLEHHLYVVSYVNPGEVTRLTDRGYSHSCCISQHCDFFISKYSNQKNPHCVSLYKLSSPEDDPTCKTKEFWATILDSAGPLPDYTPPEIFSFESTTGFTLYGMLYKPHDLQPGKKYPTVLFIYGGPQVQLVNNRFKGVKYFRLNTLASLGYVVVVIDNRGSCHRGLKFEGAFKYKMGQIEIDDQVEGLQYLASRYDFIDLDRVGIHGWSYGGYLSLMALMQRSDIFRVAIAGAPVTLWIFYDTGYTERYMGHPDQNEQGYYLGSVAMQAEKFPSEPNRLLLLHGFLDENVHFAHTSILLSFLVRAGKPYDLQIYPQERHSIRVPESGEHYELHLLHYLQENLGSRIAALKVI

- IC50 (Dipeptidyl peptidase 8): > 100 µM
- IC50 (Dipeptidyl peptidase 9): > 100 µM
Compound: Cn1c(=O)n(Cc2ccccc2C#N)c2c(N3CCC[C@@H](N)C3)cc(N3CCOCC3)nc21
